# Where two headings read alike, the source gives them in different places.
# Experiments:
# Mycoplasma gallisepticum = experiment: MIC, broth-dilution microtiter test (Table III); assay type: cell-based; design: unit not given here
# Procedure: (§1) The MIC's in Table II were determined by standard agar-dilution assays. The MIC's in Table III were obtained using a conventional broth-dilution microtiter test.
# Mycoplasma hyorhinis = experiment: MIC, broth-dilution microtiter test (Table III); assay type: cell-based; design: unit not given here
# Procedure: as §1
# Mycoplasma synoviae = experiment: MIC, broth-dilution microtiter test (Table III); assay type: cell-based; design: unit not given here
# Procedure: as §1
# Staphylococcus aureus = experiment: MIC, broth-dilution microtiter test (Table III); assay type: cell-based; design: unit not given here
# Procedure: as §1
# [1] = system: Pasteurella multocida 17E; experiment: MIC, broth-dilution microtiter test (Table III); assay type: cell-based; design: unit not given here; details: bovine isolate
# Procedure: as §1
# [2] = system: Pasteurella multocida 22A; experiment: MIC, broth-dilution microtiter test (Table III); assay type: cell-based; design: unit not given here
# Procedure: as §1
# [3] = system: Pasteurella haemolytica 41D; experiment: MIC, broth-dilution microtiter test (Table III); assay type: cell-based; design: unit not given here
# Procedure: as §1
# [4] = system: Pasteurella multocida 60A; experiment: MIC, broth-dilution microtiter test (Table III); assay type: cell-based; design: unit not given here; details: avian isolate
# Procedure: as §1
# [5] = system: Pasteurella multocida 40G; experiment: MIC, broth-dilution microtiter test (Table III); assay type: cell-based; design: unit not given here
# Procedure: as §1
# [6] = system: Pasteurella multocida 68C; experiment: MIC, broth-dilution microtiter test (Table III); assay type: cell-based; design: unit not given here
# Procedure: as §1
# [7] = system: Pasteurella haemolytica 22C; experiment: MIC, broth-dilution microtiter test (Table III); assay type: cell-based; design: unit not given here
# Procedure: as §1
# Streptococcus sp. 80 = experiment: MIC, broth-dilution microtiter test (Table III); assay type: cell-based; design: unit not given here
# Procedure: as §1
# [8] = system: Pasteurella haemolytica 23C; experiment: MIC, broth-dilution microtiter test (Table III); assay type: cell-based; design: unit not given here
# Procedure: as §1
# [9] = system: Streptococcus pneumoniae Park I; experiment: MIC, standard agar-dilution assay (Table II); assay type: cell-based; design: unit not given here
# Procedure: as §1
# [10] = system: Streptococcus Group D 9960; experiment: MIC, standard agar-dilution assay (Table II); assay type: cell-based; design: unit not given here
# Procedure: as §1
# [11] = system: Streptococcus pyogenes C203; experiment: MIC, standard agar-dilution assay (Table II); assay type: cell-based; design: unit not given here
# Procedure: as §1
# [12] = system: Haemophilus influenzae R252; experiment: MIC, standard agar-dilution assay (Table II); assay type: cell-based; design: unit not given here; details: Haemophilus influenzae R252, ampicillin-resistant strain
# Procedure: as §1
# [13] = system: Staphylococcus aureus X400; experiment: MIC, standard agar-dilution assay (Table II); assay type: cell-based; design: unit not given here; details: Staphylococcus aureus X400, methicillin-resistant strain
# Procedure: as §1
# [14] = system: Streptococcus Group D X66; experiment: MIC, standard agar-dilution assay (Table II); assay type: cell-based; design: unit not given here
# Procedure: as §1
# [15] = system: Staphylococcus aureus S13E; experiment: MIC, standard agar-dilution assay (Table II); assay type: cell-based; design: unit not given here
# Procedure: as §1
# [16] = system: Staphylococcus aureus V41; experiment: MIC, standard agar-dilution assay (Table II); assay type: cell-based; design: unit not given here; details: Staphylococcus aureus V41, penicillin-resistant strain
# Procedure: as §1
# [17] = system: Haemophilus influenzae Holt; experiment: MIC, standard agar-dilution assay (Table II); assay type: cell-based; design: unit not given here; details: ampicillin-sensitive strain
# Procedure: as §1
# [18] = system: Staphylococcus aureus X1.1; experiment: MIC, standard agar-dilution assay (Table II); assay type: cell-based; design: unit not given here
# Procedure: as §1
# [19] = system: Staphylococcus epidermidis EPI2; experiment: MIC, standard agar-dilution assay (Table II); assay type: cell-based; design: unit not given here
# Procedure: as §1
# [20] = system: Staphylococcus epidermidis EPI1; experiment: MIC, standard agar-dilution assay (Table II); assay type: cell-based; design: unit not given here
# Procedure: as §1
# Pasteurella multocida = experiment: Treatment of Pasteurella infections in chicks (Table V); assay type: in vivo, one-day-old chicks; details: 30 mg/kg by subcutaneous injection one and four hours post challenge; for mortality at 30 mg/kg: Pasteurella multocida, sc, 4 h, read-out: Deaths in Treated Chicks/Number Treated (converted)
# Method in brief: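 Dosing was 30 mg/kg by subcutaneous injection, one and four hours after challenge. Day-old chicks received 0.1 ml of a 10^-3 dilution of a 20-hour tryptose broth culture of avian P. multocida subcutaneously. Nonmedicated infected chicks served as controls, ten per group.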
# [21] = system: Streptococcus pyogenes C203; experiment: ED50 in mice with experimental infections (Table IV); assay type: in vivo; details: doses given 1 and 4 hours postinfection; for ED50: Streptococcus pyogenes
# Method in brief: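 Read-out is ED50, the mg/kg dose protecting half of infected mice; values refer to each of two doses, given 1 and 4 hours after infection.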
# [22] = C203, oral, read-out: ED50, Oral
# [23] = C203, sc, subcutaneous, read-out: ED50, Subcutaneous
Structure (SMILES),minimal inhibitory concentration (MIC) (Mycoplasma gallisepticum),minimal inhibitory concentration (MIC) (Mycoplasma hyorhinis),minimal inhibitory concentration (MIC) (Mycoplasma synoviae),minimal inhibitory concentration (MIC) (Staphylococcus aureus),minimal inhibitory concentration (MIC) [1],minimal inhibitory concentration (MIC) [2],minimal inhibitory concentration (MIC) [3],minimal inhibitory concentration (MIC) [4],minimal inhibitory concentration (MIC) [5],minimal inhibitory concentration (MIC) [6],minimal inhibitory concentration (MIC) [7],minimal inhibitory concentration (MIC) (Streptococcus sp. 80),minimal inhibitory concentration (MIC) [8],minimal inhibitory concentration (MIC) [9],minimal inhibitory concentration (MIC) [10],minimal inhibitory concentration (MIC) [11],minimal inhibitory concentration (MIC) [12],minimal inhibitory concentration (MIC) [13],minimal inhibitory concentration (MIC) [14],minimal inhibitory concentration (MIC) [15],other results
CCC1OC(=O)CC(O)C(C)C(OC2OC(C)C(O)C(N(C)C)C2OC(C)=O)C(CC=O)CC(C)C(=O)C=CC(C)=CC1COC(C)=O (stereo not shown) [Compound 9],< 0.78,1.56,0.097,0.78,1.56,6.25,3.12,1.56,1.56,3.12,3.12,0.195,3.12,0.125,0.5,0.25,4,0.5,0.5,0.25,"minimal inhibitory concentration (MIC) [16]: 0.5; minimal inhibitory concentration (MIC) [17]: 1; minimal inhibitory concentration (MIC) [18]: 0.45; minimal inhibitory concentration (MIC) [19]: 0.25; minimal inhibitory concentration (MIC) [20]: 0.25; mortality at 30 mg/kg (Pasteurella multocida): 0%; ED50 [21, 22]: 137 mg/kg; ED50 [21, 23]: 6.4 mg/kg"
"CCC1OC(=O)CC(O)C(C)C(OC2OC(C)C(OC(C)=O)C(N(C)C)C2OC(C)=O)C(CC=O)CC(C)C(=O)C=CC(C)=CC1COC(C)=O (stereo not shown) [Compound 7, 2',4',23-Tri-O-acetyl-OMT]",0.39,3.12,0.39,0.78,3.12,3.12,6.25,3.12,1.56,1.56,6.25,0.195,6.25,0.125,1,0.5,8,1,1,1,"minimal inhibitory concentration (MIC) [16]: 1; minimal inhibitory concentration (MIC) [17]: 2; minimal inhibitory concentration (MIC) [18]: 0.5; minimal inhibitory concentration (MIC) [19]: 0.5; minimal inhibitory concentration (MIC) [20]: 0.5; mortality at 30 mg/kg (Pasteurella multocida): 50%; ED50 [21, 22]: 100 mg/kg; ED50 [21, 23]: > 15 mg/kg"
CCC1OC(=O)CC(O)C(C)C(OC2OC(C)C(O)C(N(C)C)C2O)C(CC=O)CC(C)C(=O)C=CC(C)=CC1COC(=O)C(N)c1ccccc1 (stereo not shown) [Compound 57],0.195,6.25,0.39,3.12,6.25,3.12,6.25,3.12,3.12,3.12,6.25,0.39,6.25,0.03,0.5,0.125,2,1,0.5,0.5,"minimal inhibitory concentration (MIC) [16]: 0.5; minimal inhibitory concentration (MIC) [17]: 2; minimal inhibitory concentration (MIC) [18]: 0.5; minimal inhibitory concentration (MIC) [19]: 1; minimal inhibitory concentration (MIC) [20]: 0.5; Deaths in Treated Chicks/Number Treated (Pasteurella multocida): 0/10; ED50, Oral ([21]; oral): 91 mg/kg × 2; ED50, Subcutaneous ([21]; subcutaneous): 2.6 mg/kg × 2"
CCC1OC(=O)CC(O)C(C)C(OC2OC(C)C(O)C(N(C)C)C2OC(C)=O)C(CC=O)CC(C)C(=O)C=CC(C)=CC1COC(=O)C=Cc1ccccc1 (stereo not shown) [Compound 33],0.05,0.78,0.39,0.39,3.12,3.12,12.5,3.12,3.12,3.12,12.5,0.39,12.5,0.125,1,0.25,4,0.5,1,0.5,"minimal inhibitory concentration (MIC) [16]: 0.5; minimal inhibitory concentration (MIC) [17]: 4; minimal inhibitory concentration (MIC) [18]: 0.5; minimal inhibitory concentration (MIC) [19]: 0.5; minimal inhibitory concentration (MIC) [20]: 0.5; mortality at 30 mg/kg (Pasteurella multocida): 80%; ED50 [21, 22]: 146 mg/kg; ED50 [21, 23]: 9.7 mg/kg"

# Source: patent US4401660A, “Ester derivatives of 5-O-mycaminosyl tylonolide and method of using same” (Eli Lilly and Company, priority 1981, dated 1983)
